Where “and” joins values, the source holds several entries; their conditions need not be identical. Equal values may be shown once. Toxic doses and inconclusive results are not listed. Rule as the data show it: active = T/C of 150% or more; inactive = T/C below 125%.
Test system: L1210 leukemia ip in BDF1 mice, survival T/C
Assay: NCI In Vivo Anticancer Drug Screen. Data for tumor model L1210 Leukemia (intraperitoneal) in B6D2F1 (BDF1) mice
Conditions: endpoint: mean survival time, higher = longer survival
Method in brief: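 Mice bearing the transplanted tumor received compound or vehicle. Survival of the treated group was divided by that of the vehicle-treated control group to give the ratio.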

[1] = dose: 50.0 mg/kg/injection, schedule: Q01DX001 (ip), vehicle: saline
[2] = dose: 75.0 mg/kg/injection, schedule: Q01DX001 (ip), vehicle: saline
[3] = dose: 150.0 mg/kg/injection, schedule: Q01DX001 (ip), vehicle: saline
[4] = dose: 300.0 mg/kg/injection, schedule: Q01DX001 (ip), vehicle: saline

Measured: T/C

C[CH2][Sn]([CH2]C)([O]S(=O)(=O)CC12CCC(CC1=O)C2(C)C)[O]S(=O)(=O)CC12CCC(CC1=O)C2(C)C
inactive: dose: 3.12 mg/kg/injection, schedule: Q01DX009 (ip), vehicle: saline 106 % of control | dose: 5.5 mg/kg/injection, schedule: Q01DX009 (ip), vehicle: saline 109 % of control | dose: 6.25 mg/kg/injection, schedule: Q01DX009 (ip), vehicle: saline 106 % of control and 107 % of control | dose: 6.25 mg/kg/injection, schedule: Q04DX003 (ip), vehicle: saline 112 % of control | dose: 8.2 mg/kg/injection, schedule: Q01DX009 (ip), vehicle: saline 118 % of control | dose: 11.0 mg/kg/injection, schedule: Q04DX003 (ip), vehicle: saline 113 % of control | dose: 12.5 mg/kg/injection, schedule: Q01DX009 (ip), vehicle: saline 106 % of control and 120 % of control | dose: 12.5 mg/kg/injection, schedule: Q04DX002 (ip), vehicle: saline 104 % of control | dose: 12.5 mg/kg/injection, schedule: Q04DX003 (ip), vehicle: saline 114 % of control | dose: 16.0 mg/kg/injection, schedule: Q04DX003 (ip), vehicle: saline 104 % of control | dose: 18.0 mg/kg/injection, schedule: Q01DX009 (ip), vehicle: saline 117 % of control | dose: 22.0 mg/kg/injection, schedule: Q04DX002 (ip), vehicle: saline 107 % of control | dose: 25.0 mg/kg/injection, schedule: Q01DX001 (ip), vehicle: saline 109 % of control | dose: 25.0 mg/kg/injection, schedule: Q01DX009 (ip), vehicle: saline 112 % of control and 115 % of control and 120 % of control | dose: 25.0 mg/kg/injection, schedule: Q04DX002 (ip), vehicle: saline 106 % of control | dose: 25.0 mg/kg/injection, schedule: Q04DX003 (ip), vehicle: saline 112 % of control and 117 % of control | dose: 35.0 mg/kg/injection, schedule: Q04DX002 (ip), vehicle: saline 116 % of control | dose: 35.0 mg/kg/injection, schedule: Q04DX003 (ip), vehicle: saline 113 % of control | dose: 45.0 mg/kg/injection, schedule: Q01DX001 (ip), vehicle: saline 120 % of control | [1] 114 % of control | dose: 50.0 mg/kg/injection, schedule: Q04DX003 (ip), vehicle: saline 102 % of control | dose: 55.0 mg/kg/injection, schedule: Q04DX003 (ip), vehicle: saline 112 % of control

CCCC(C)OP(=O)(OC(C)CC)OC(C)CC (centres undefined)
inactive: dose: 100.0 mg/kg/injection, schedule: Q01DX009 (ip), vehicle: Klucel (hydroxypropylcellulose) (HPC) 97 % of control | dose: 200.0 mg/kg/injection, schedule: Q01DX009 (ip), vehicle: Klucel (hydroxypropylcellulose) (HPC) 97 % of control

CN(C)CC(OCCCc1ccccc1)C(Cl)(Cl)Cl (centres undefined)
inactive: dose: 100.0 mg/kg/injection, schedule: Q04DX003 (ip), vehicle: saline with Tween-80 109 % of control | dose: 200.0 mg/kg/injection, schedule: Q04DX003 (ip), vehicle: saline with Tween-80 101 % of control

NC(=S)N/N=C/c1cc(=O)[nH]c(=O)[nH]1
inactive: [1] 93 % of control | dose: 100.0 mg/kg/injection, schedule: Q01DX001 (ip), vehicle: saline 95 % of control | dose: 200.0 mg/kg/injection, schedule: Q01DX001 (ip), vehicle: saline 98 % of control | dose: 400.0 mg/kg/injection, schedule: Q01DX001 (ip), vehicle: saline 95 % of control

CCOC(=O)C1CC1(C)c1ccccc1 (centres undefined)
inactive: dose: 100.0 mg/kg/injection, schedule: Q04DX002 (ip), vehicle: saline with Tween-80 97 % of control | dose: 200.0 mg/kg/injection, schedule: Q04DX002 (ip), vehicle: saline with Tween-80 93 % of control | dose: 400.0 mg/kg/injection, schedule: Q04DX002 (ip), vehicle: saline with Tween-80 90 % of control

Cc1nc2c(N)nn(C)c2nc1C
inactive: dose: 100.0 mg/kg/injection, schedule: Q01DX009 (ip), vehicle: saline with Tween-80 96 % of control | dose: 200.0 mg/kg/injection, schedule: Q01DX009 (ip), vehicle: saline with Tween-80 102 % of control

CCOC(=O)c1cnc(SC)nc1Nc1ccccc1OC
inactive: dose: 100.0 mg/kg/injection, schedule: Q04DX003 (ip), vehicle: Klucel (hydroxypropylcellulose) (HPC) 90 % of control | dose: 200.0 mg/kg/injection, schedule: Q04DX003 (ip), vehicle: Klucel (hydroxypropylcellulose) (HPC) 92 % of control | dose: 400.0 mg/kg/injection, schedule: Q04DX003 (ip), vehicle: Klucel (hydroxypropylcellulose) (HPC) 87 % of control

CCCC1(CC(C)CC)C(=O)NC(=O)NC1=O (centres undefined)
inactive: [2] 100 % of control | [3] 96 % of control | [4] 98 % of control

CCCCCCCCCCCCCCCCCCNc1ccc(C(=O)OCC)cc1
inactive: dose: 37.5 mg/kg/injection, schedule: Q01DX009 (ip), vehicle: saline 94 % of control | [2] 86 % of control | dose: 75.0 mg/kg/injection, schedule: Q01DX009 (ip), vehicle: saline 95 % of control | dose: 75.0 mg/kg/injection, schedule: Q04DX003 (ip), vehicle: saline 87 % of control | dose: 150.0 mg/kg/injection, schedule: Q01DX009 (ip), vehicle: saline 96 % of control | dose: 150.0 mg/kg/injection, schedule: Q04DX003 (ip), vehicle: saline 87 % of control | [4] 88 % of control | dose: 300.0 mg/kg/injection, schedule: Q04DX003 (ip), vehicle: saline 92 % of control

O=c1[nH]c(Cl)ncc1F
inactive: [2] 95 % of control | [3] 96 % of control | [4] 102 % of control

CCCCCCCCCC(C)CCCC (centres undefined)
inactive: dose: 100.0 mg/kg/injection, schedule: Q01DX001 (ip), vehicle: saline with Tween-80 86 % of control | dose: 200.0 mg/kg/injection, schedule: Q01DX001 (ip), vehicle: saline with Tween-80 96 % of control

— PubChem BioAssay AID248 (DTP/NCI, 2004)
